Data published in paper PMC10287695, “Non-covalent inhibitors of thioredoxin glutathione reductase with schistosomicidal activity in vivo” (Nature Communications, 2023).
“And” between values parts separate entries of the source, which are not always exact repeats. Identical values can stand only once.

Key:
[1] = test system: S. mansoni juvenile worms (21 days); assay: Schistosomicidal activity ex vivo, juvenile worms (21 days); type: cell-based; settings: for viability at 5 µM / viability at 15 µM / viability at 30 µM: Schistosoma mansoni, 23 day S. mansoni worms, 48 HR; for viability at 5 µM: Conc. 5 µM; for viability at 15 µM: Conc. 15 µM; for viability at 30 µM: Conc. 30 µM; for LD50 ex vivo S. mansoni 21 days: juvenile worms, 48 h exposure
Experimental: (§1) Three-week old, female Swiss-Webster mice obtained from the Charles River were housed in the Comparative Research Center of Rush University Medical Center. Mice were infected by percutaneous tail exposure to about 200 S. mansoni or 50 S. japonicum cercaria for adult worms and about 1000 cercaria for juvenile S. mansoni worms through natural transdermal penetration of the cercariae for 1 h[81].
(§2) DMSO formulated compounds were diluted with phenol red free M199 medium or RPMI medium for NTS or juvenile and adult worms, respectively, at <1% DMSO final concentrations. NTS, juvenile and adult worms from overnight cultures were tested against compounds in triplicate. Controls were treated with DMSO alone or 5 µM AF as a positive control in appropriate medium. […] Schistosome viabilities in the presence of the compounds were assessed using this formula: % Viability = Averages of Test / Averages of DMSO Control x 100.

[2] = test system: S. japonicum adult worms; assay: Schistosomicidal activity ex vivo, S. japonicum adult worms; type: cell-based; settings: for LD50 ex vivo S. japonicum adult: 48 h exposure
Experimental: as §1, §2

[3] = Cytotoxicity in mammalian cells (Cell Titer Glo); type: cell-based; settings: African green monkey, Vero cells
Experimental: Following overnight incubation, formulated DMSO-compound stock solutions were diluted with DMEM at <1% DMSO final concentrations. […] Vero cells treated similarly with different concentrations of PZQ, MZM and AF (Cayman Chemicals) were used as positive controls.

[4] = test system: TGR in newly transformed schistosomula (NTS); assay: TGR inhibition in NTS with TRFS-Green fluorescent probe; type: cell-based, S. mansoni
In short: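 TGR activity in NTS was probed with the fluorescent reagent TRFS-Green. Parasites in M199 medium with glucose, antibiotics and heat-inactivated serum were kept overnight in clear-bottom plates, exposed to 10 µM probe for 4 h, then washed. Signal from probe uptake was read on a microplate imager (ex 438 nm, em 538 nm) hourly for 5 h and after 24 h.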

[5] = target: T1, TGR (Schistosoma mansoni, UniProt Q962Y6); assay: Reversibility by jump dilution; type: biochemical
T1 construct: made in house
T1 sequence (Q962Y6 1-598): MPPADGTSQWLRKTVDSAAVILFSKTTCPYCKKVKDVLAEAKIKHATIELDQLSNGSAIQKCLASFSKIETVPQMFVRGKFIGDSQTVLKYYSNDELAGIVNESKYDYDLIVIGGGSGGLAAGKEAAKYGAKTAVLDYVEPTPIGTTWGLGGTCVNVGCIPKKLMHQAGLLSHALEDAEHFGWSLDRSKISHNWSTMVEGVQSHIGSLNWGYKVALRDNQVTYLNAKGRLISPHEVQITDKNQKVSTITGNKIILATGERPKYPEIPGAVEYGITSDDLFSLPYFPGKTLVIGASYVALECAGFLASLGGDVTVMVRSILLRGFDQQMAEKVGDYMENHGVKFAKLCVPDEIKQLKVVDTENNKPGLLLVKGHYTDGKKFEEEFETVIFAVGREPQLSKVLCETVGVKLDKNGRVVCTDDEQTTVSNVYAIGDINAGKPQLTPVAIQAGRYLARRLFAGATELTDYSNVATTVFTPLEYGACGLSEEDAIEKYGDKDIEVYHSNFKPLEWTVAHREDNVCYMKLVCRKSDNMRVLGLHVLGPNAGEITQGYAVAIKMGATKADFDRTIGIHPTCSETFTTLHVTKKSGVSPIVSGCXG
Experimental: A reaction of 370 nM TGR, 100 µM NADPH, and 250 µM inhibitor was incubated for 15 min at room temperature. A 100x dilution of the reaction was made and the activity was determined immediately and after 60 min.

[6] = target: T1, TGR; assay: Thermal shift assay (TSA); type: binding; set-up: key to Avg. Tm / Tm, replicate 1-3: Tm in °C, from a 25–95 °C melt curve
Experimental: Samples were prepared by using a final concentration of 0.25 mg/ml TGR diluted in TGR reaction buffer to the desired volume. To evaluate reduced TGR, 500 µM NADPH was added. […] After the preincubation period, 20 µL samples were pipetted into a BioRad un-skirted PCR 96 well plate and sealed with MicroAmp^TM Optical Adhesive film. The plate was then centrifuged for 5 min at 1000 × g. TSA was carried out using a BioRad CFX Connect qPCR instrument with a melt curve setting of 25 − 95 °C, in increments of 0.5 °C/10 seconds. The SYBR green channel was used to detect fluorescence as the wavelength of flavin fluorescence overlaps with that of SYBR green. BioRad CFX Maestro 5.2 was used to analyze TSA data.

[7] = target: T1, TGR; assay: Time dependence of inhibition; type: biochemical; set-up: avg % inhib, 0.5 hr / avg % inhib, 1 hr / avg % inhib, 2 hr / avg % inhib, 3 hr / avg % inhib, 6 hr / avg % inhib, 24 hr: tested at 50 µM; settings: panel d Time Dependence
Experimental: TGR was incubated at room temperature (up to 6 h) and at 4 °C for 6 to 24 h with 50 µM inhibitor and 100 µM NADPH for the indicated times. Then DTNB (3 mM) and NADPH (100 µM) were added, and the reaction was monitored at A412 for 5 min. The assay was done in triplicate.

[8] = D60: diluted 1:100, activity determined after 60 min, list for plotting
[9] = before dilution (-15), list for plotting

CCc1ccccc1-c1nc(CN[C@@H]2C[C@@H]3C[C@H]([C@H]2C)C3(C)C)c(C)o1 [Compound 2]
viability at 5 µM [1]: 57%
viability at 15 µM [1]: 9.68%
viability at 30 µM [1]: 0.112%
LD50 ex vivo S. mansoni 21 days [1]: 7.2 ± 0.30 µM
LD50 ex vivo S. japonicum adult [2]: 11.1 ± 1.35 µM
viability at 5 µM ([2]; Schistosoma japonicum, S. japonicum adult worms, 48 hr, Conc. 5 µM): 52.5%
viability at 15 µM ([2]; Schistosoma japonicum, S. japonicum adult worms, 48 hr, Conc. 15 µM): 30.6%
viability at 30 µM ([2]; Schistosoma japonicum, S. japonicum adult worms, 48 hr, Conc. 30 µM): 3.64%
viability at 24 h, 5 µM ([3]; Conc. 5 µM): 99.8%
viability at 24 h, 10 µM ([3]; Conc. 10 µM): 98.9%
viability at 24 h, 25 µM ([3]; Conc. 25 µM): 95.6%
viability at 24 h, 35 µM ([3]; Conc. 35 µM): 75.4%
viability at 24 h, 50 µM ([3]; Conc. 50 µM): 53.1%
TRFS-Green fluorescence in NTS ([4]; 2 h with inhibitor (30 µM; AF 3 µM) then TRFS-Green 10 µM): significant decreases in fluorescence
production of green fluorescent dye in TRFS-green assay ([4]; compound at 5 µM): abolished

Cc1oc(-c2ccccc2)nc1CN[C@@H]1C[C@@H]2C[C@H]([C@H]1C)C2(C)C [Compound 3]
viability at 5 µM [1]: 66%
viability at 15 µM [1]: 43.1%
viability at 30 µM [1]: 32.1%
LD50 ex vivo S. mansoni 21 days [1]: 10.9 ± 0.39 µM
% Activity (ID list), D0 ([5]; D0: diluted 1:100, activity determined immediately, list for plotting): 107.0% and 101.9% and 120.0%
% Activity (ID list), D60 [5, 8]: 112.2%
% Inhibition (ID list), D60 [5, 8]: -12.2% and -2.4% and -4.0%
Inhibitor (rate), 0 min ([5]; [0, D0]: 15 min preincubation inhibitor + TGR + NADPH, diluted 1:100, then activity determined immediately, raw rate): 0.04937 and 0.04787 and 0.05217
% Activity, 0 min ([5]; [0, D0]: 15 min preincubation inhibitor + TGR + NADPH, diluted 1:100, then activity determined immediately, relative to DMSO): 106.977% and 101.851% and 120.346%
Inhibitor (rate), 60 min ([5]; [60, D60]: 15 min preincubation inhibitor + TGR + NADPH, diluted 1:100, then activity determined after 60 min, raw rate): 0.04847 and 0.05055 and 0.05088
% Activity, 60 min ([5]; [60, D60]: 15 min preincubation inhibitor + TGR + NADPH, diluted 1:100, then activity determined after 60 min, relative to DMSO): 112.121% and 113.417% and 109.021%
Inhibitor (rate), -15 ([5]; [-15]: 15 min preincubation inhibitor + TGR + NADPH, then activity determined, raw rate, replicates): 0.01322 and 0.01449
% Activity, -15 ([5]; [-15]: 15 min preincubation inhibitor + TGR + NADPH, then activity determined, relative to DMSO, replicates): 38.3633% and 40.1163%
% Activity (ID list) [5, 9]: 38.4% and 40.1%
% Inhibition (ID list) [5, 9]: 61.6367% and 59.8837% and 55%
LD50 ex vivo S. japonicum adult [2]: 13.9 ± 1.45 µM
Avg. Tm ([6]; TGR + 100 µM compound): 73.5
Avg. Tm, + 500 µM NADPH ([6]; TGR + 100 µM compound + 500 µM NADPH): 73.67
Tm, replicate 1-3, + 500 µM NADPH ([6]; TGR + 100 µM compound + 500 µM NADPH, single replicates): 74 and 73.5 (2×)
Tm, replicate 1-3 ([6]; TGR + 100 µM compound, single replicates, in °C (unit assumed)): 73.5
effect on Tm of oxidized TGR ([6]; without NADPH): Neither fast 6-9 nor slow TGR inhibitors 1, 3, 5 affected the Tm
rate, 0.5 hr ([7]; 0.5 hr): 0.04131 and 0.04323 and 0.04147
avg % inhib, 0.5 hr ([7]; 0.5 hr, average): 24.9564%
% inhib, 0.5 hr ([7]; 0.5 hr, replicates): 25.1766% and 23.3647% and 26.3279%
rate, 1 hr ([7]; 1 hr): 0.03461 and 0.03399 and 0.03516
avg % inhib, 1 hr ([7]; 1 hr, average): 32.5613%
% inhib, 1 hr ([7]; 1 hr, replicates): 32.6392% and 32.4657% and 32.5791%
rate, 2 hr ([7]; 2 hr): 0.02942 and 0.0272 and 0.02813
avg % inhib, 2 hr ([7]; 2 hr, average): 39.6519%
% inhib, 2 hr ([7]; 2 hr, replicates): 35.4116% and 41.9052% and 41.639%
rate, 3 hr ([7]; 3 hr): 0.02162 and 0.0222 and 0.02273
avg % inhib, 3 hr ([7]; 3 hr, average): 45.1094%
% inhib, 3 hr ([7]; 3 hr, replicates): 45.8417% and 44.831% and 44.6555%
rate, 6 hr ([7]; 6 hr): 0.01203 and 0.009487 and 0.01329
avg % inhib, 6 hr ([7]; 6 hr, average): 55.8948%
% inhib, 6 hr ([7]; 6 hr, replicates): 54.3454% and 63.1143% and 50.2247%
rate, 24 hr ([7]; 24 hr): 0.008207 and 0.008188 and 0.0092
avg % inhib, 24 hr ([7]; 24 hr, average): 56.6355%
% inhib, 24 hr ([7]; 24 hr, replicates): 56.206% and 58.6882% and 55.0122%
